Measured values taken from ChEMBL document CHEMBL1142760, “Glycosidase inhibition by 1-glycosyl-4-phenyl triazoles” (Bioorg Med Chem Lett, 2005).

Experiments:
[1] = biological target: T1, Alpha-galactosidase (Escherichia coli K-12) (UniProt P06720); test: Percent inhibition against Escherichia coli galactosidase at 0.24 mM; n>=3
T1 sequence (whole entry): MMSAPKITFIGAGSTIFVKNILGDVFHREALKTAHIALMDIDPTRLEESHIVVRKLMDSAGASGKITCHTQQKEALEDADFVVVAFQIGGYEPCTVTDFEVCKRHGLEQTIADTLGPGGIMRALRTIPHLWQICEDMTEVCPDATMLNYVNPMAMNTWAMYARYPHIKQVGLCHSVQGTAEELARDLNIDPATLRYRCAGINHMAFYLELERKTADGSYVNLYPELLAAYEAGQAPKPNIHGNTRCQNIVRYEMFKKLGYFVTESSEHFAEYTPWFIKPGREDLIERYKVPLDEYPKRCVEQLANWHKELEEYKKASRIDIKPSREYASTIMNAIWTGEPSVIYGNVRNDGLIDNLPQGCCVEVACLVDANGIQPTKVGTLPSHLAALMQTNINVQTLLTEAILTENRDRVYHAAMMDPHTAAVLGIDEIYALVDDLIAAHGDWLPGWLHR

[2] = biological target: T1, Alpha-galactosidase (Escherichia coli K-12); test: Percent inhibition against Escherichia coli galactosidase at 0.24 mM; n>=2

Row | SMILES | inhibition [1] [%] | inhibition [2] [%]
1 | OC[C@H]1NC[C@H](O)[C@@H](O)[C@@H]1O | < 20 | 
2 | OC[C@@H]1O[C@@H](n2cc(-c3ccccc3)nn2)[C@@H](O)[C@@H](O)[C@@H]1O |  | < 20
3 | OC[C@@H]1O[C@@H](n2cc(-c3ccccc3)nn2)[C@@H](O)[C@@H](O)[C@H]1O | 30 | 
